According to patent publication US20240384350A1, “METHODS OF TREATING CANCER WITH KINASE INHIBITORS” (BOARD OF REGENTS, THE UNIVERSITY OF TEXAS SYSTEM, priority 2021, published 2024):

Assays:
Test in all cases: Ba/F3 drug screening, Cell Titer Glo, IC50 Mut/WT
Type in all cases: cell-based
EGFR Ex19del G796S = target: T1, EGFR Ex19del G796S (Homo sapiens, UniProt P00533, DEL746-750/G796S)
T1 construct: expressed in transfected cells; host or cells: Ba/F3
Protocol: (§1) Data represent the ratio of the IC50 value for a given TKI for cells with a PACC EGFR mutation to the IC50 value for cells with wildtype EGFR.
(§2) Ba/F3 cell generation, drug screening, and IC50 approximations. Ba/F3 cells were obtained as a gift from Dr. Gordon Mills (MD Anderson Cancer Center), and maintained in RPMI (Sigma) containing 10% FBS, 1% penicillin/streptomycin, and 10 ng/ml recombinant mIL-3 (R&D Biosystems). To establish stable Ba/F3 cell lines, Ba/F3 cells were transduced with retroviruses containing mutant EGFR plasmids for 12-24 hours.
(§3) After 48-72 hours of transduction, 2 μg/ml puromycin (Invitrogen) was added to Ba/F3 cell lines in complete RPMI. To select for EGFR positive cell lines, cells were stained with PE-EGFR (Biolegend) and sorted by FACS. After sorting, EGFR positive cells were maintained in RPMI containing 10% FBS, 1% penicillin/streptomycin, and 1 ng/ml EGF to support cell viability. Drug screening was performed as previously described^41,42. Shortly, cells were plated in 384-well plates (Greiner Bio-One) at 2000-3000 cells per well in technical triplicate. Seven different concentrations of TKIs or DMSO vehicle were added to reach a final volume of 40 μL per well. After 72 hours, 11 μL of Cell Titer Glo (Promega) was added to each well. Plates were incubated for a minimum of 10 minutes, and bioluminescence was determined using a FLUOstar OPTIMA plate reader (BMG LABTECH). Raw bioluminescence values were normalized to DMSO control treated cells, and values were plotted in GraphPad Prism. […] Drug screens were performed in technical triplicate on each plate and either duplicate or triplicate biological replicates.

EGFR L747S = target: T2, EGFR L747S (Homo sapiens, UniProt P00533, L747S)
T2 construct: expressed in transfected cells; host or cells: Ba/F3

EGFR S768dupSVD = target: T3, EGFR S768dupSVD (Homo sapiens, UniProt P00533, DUP768-770); conditions: Ex20, 72 hours
T3 construct: expressed in transfected cells; host or cells: Ba/F3 cells, retroviral pBabe-Puro vector

EGFR A763insFQEA = target: T4, EGFR A763insFQEA (Homo sapiens, UniProt P00533, INS763FQEA); conditions: Classical-Like, 72 hours
T4 construct: expressed in transfected cells; host or cells: Ba/F3 cells, retroviral pBabe-Puro vector

EGFR Ex19del/C797S = target: T5, EGFR Ex19del/C797S (Homo sapiens, UniProt P00533, C797S/DEL746-750)
T5 construct: expressed in transfected cells; host or cells: Ba/F3
Protocol: as §1, §2, §3

EGFR L861R = target: T6, EGFR L861R (Homo sapiens, UniProt P00533, L861R); conditions: Classical-Like, 72 hours
T6 construct: expressed in transfected cells; host or cells: Ba/F3 cells, retroviral pBabe-Puro vector (vector made by GeneScript from EGFR WT)

EGFR L858R/V834L = target: T7, EGFR L858R/V834L (Homo sapiens, UniProt P00533, L858R/V834L); conditions: Classical-Like, 72 hours
T7 construct: expressed in transfected cells; host or cells: Ba/F3 cells, retroviral pBabe-Puro vector
Protocol: (§4) Data represent the ratio of the IC50 value for a given TKI for cells with a classical-like EGFR mutation to the IC50 value for cells with wildtype EGFR.
as §2
(§5) After 48-72 hours of transduction, 2 μg/ml puromycin (Invitrogen) was added to Ba/F3 cell lines in complete RPMI. To select for EGFR positive cell lines, cells were stained with PE-EGFR (Biolegend) and sorted by FACS. After sorting, EGFR positive cells were maintained in RPMI containing 10% FBS, 1% penicillin/streptomycin, and 1 ng/ml EGF to support cell viability. […] Shortly, cells were plated in 384-well plates (Greiner Bio-One) at 2000-3000 cells per well in technical triplicate. Seven different concentrations of TKIs or DMSO vehicle were added to reach a final volume of 40 μL per well. After 72 hours, 11 μL of Cell Titer Glo (Promega) was added to each well. Plates were incubated for a minimum of 10 minutes, and bioluminescence was determined using a FLUOstar OPTIMA plate reader (BMG LABTECH). Raw bioluminescence values were normalized to DMSO control treated cells, and values were plotted in GraphPad Prism. […] Drug screens were performed in technical triplicate on each plate and either duplicate or triplicate biological replicates.

[1] = target: T8, EGFR L747_K754del insATSPE (Homo sapiens, UniProt P00533, DEL747-749/K754E); conditions: T790M-like-3S, 72 hours
T8 construct: expressed in transfected cells; host or cells: Ba/F3 cells, retroviral pBabe-Puro vector
Protocol: Data represent the ratio of the IC50 value for a given TKI for cells with a T790M-like-3S EGFR mutation to the IC50 value for cells with wildtype EGFR.
as §2, §3

EGFR Ex19del T854I = target: T9, EGFR Ex19del T854I (Homo sapiens, UniProt P00533, DEL746-750/T854I)
T9 construct: expressed in transfected cells; host or cells: Ba/F3 (retroviral transduction, pBabe-Puro based vectors)

EGFR L858R/T790M/L718Q = target: T10, EGFR L858R/T790M/L718Q (Homo sapiens, UniProt P00533, L718Q/L858R/T790M); conditions: T790M-like-3R, 72 hours
T10 construct: expressed in transfected cells; host or cells: Ba/F3
Protocol: Data represent the ratio of the IC50 value for a given TKI for cells with a T790M-like-3R EGFR mutation to the IC50 value for cells with wildtype EGFR.
as §2
After 48-72 hours of transduction, 2 μg/ml puromycin (Invitrogen) was added to Ba/F3 cell lines in complete RPMI. To select for EGFR positive cell lines, cells were stained with PE-EGFR (Biolegend) and sorted by FACS. After sorting, EGFR positive cells were maintained in RPMI containing 10% FBS, 1% penicillin/streptomycin, and 1 ng/ml EGF to support cell viability. […] Shortly, cells were plated in 384-well plates (Greiner Bio-One) at 2000-3000 cells per well in technical triplicate. Seven different concentrations of TKIs or DMSO vehicle were added to reach a final volume of 40 μL per well. After 72 hours, 11 μL of Cell Titer Glo (Promega) was added to each well. Plates were incubated for a minimum of 10 minutes, and bioluminescence was determined using a FLUOstar OPTIMA plate reader (BMG LABTECH). Raw bioluminescence values were normalized to DMSO control treated cells, and values were plotted in GraphPad Prism. […] Drug screens were performed in technical triplicate on each plate and either duplicate or triplicate biological replicates. […] Statistical differences between groups were determined by ANOVA as described in the figure legends.

EGFR R776H = target: T11, EGFR R776H (Homo sapiens, UniProt P00533, R776H)
T11 construct: host or cells: Ba/F3
Protocol: as §1, §2, §3

EGFR L858R/T790M/C797S = target: T12, EGFR L858R/T790M/C797S (Homo sapiens, UniProt P00533, C797S/L858R/T790M); conditions: T790M-like-3R, 72 hours
T12 construct: expressed in transfected cells; host or cells: Ba/F3

EGFR S720P = target: T13, EGFR S720P (Homo sapiens, UniProt P00533, S720P); conditions: Classical-Like, 72 hours
T13 construct: expressed in transfected cells; host or cells: Ba/F3 cells, retroviral pBabe-Puro vector (vector made by GeneScript from EGFR WT)

EGFR Ex19del T790M C797S = target: T14, EGFR Ex19del T790M C797S (Homo sapiens, UniProt P00533, C797S/DEL746-750/T790M); conditions: T790M-like-3R, 72 hours
T14 construct: expressed in transfected cells; host or cells: Ba/F3

EGFR Ex19del/T790M/G724S = target: T15, EGFR Ex19del/T790M/G724S (Homo sapiens, UniProt P00533, DEL746-750/G724S/T790M); conditions: T790M-like-3S, 72 hours
T15 construct: expressed in transfected cells; host or cells: Ba/F3

EGFR H773insNPH = target: T16, EGFR H773insNPH (Homo sapiens, UniProt P00533, INS773NPH); conditions: Ex20, 72 hours
T16 construct: expressed in transfected cells; host or cells: Ba/F3 cells, retroviral pBabe-Puro vector

EGFR A767insASV = target: T17, EGFR A767insASV (Homo sapiens, UniProt P00533, DUP767-769); conditions: Ex20, 72 hours
T17 construct: expressed in transfected cells; host or cells: Ba/F3 cells, retroviral pBabe-Puro vector
Protocol: (§6) Data represent the ratio of the IC50 value for a given TKI for cells with an ex20ins EGFR mutation to the IC50 value for cells with wildtype EGFR.
as §2
(§7) After 48-72 hours of transduction, 2 μg/ml puromycin (Invitrogen) was added to Ba/F3 cell lines in complete RPMI. To select for EGFR positive cell lines, cells were stained with PE-EGFR (Biolegend) and sorted by FACS. After sorting, EGFR positive cells were maintained in RPMI containing 10% FBS, 1% penicillin/streptomycin, and 1 ng/ml EGF to support cell viability. Drug screening was performed as previously described^41,42. Shortly, cells were plated in 384-well plates (Greiner Bio-One) at 2000-3000 cells per well in technical triplicate. Seven different concentrations of TKIs or DMSO vehicle were added to reach a final volume of 40 μL per well. After 72 hours, 11 μL of Cell Titer Glo (Promega) was added to each well. Plates were incubated for a minimum of 10 minutes, and bioluminescence was determined using a FLUOstar OPTIMA plate reader (BMG LABTECH). Raw bioluminescence values were normalized to DMSO control treated cells, and values were plotted in GraphPad Prism. […] Drug screens were performed in technical triplicate on each plate and either duplicate or triplicate biological replicates. […] Statistical differences between groups were determined by ANOVA as described in the figure legends.

EGFR L858R S784F = target: T18, EGFR L858R S784F (Homo sapiens, UniProt P00533, L858R/S784F); conditions: Classical-Like, 72 hours
T18 construct: expressed in transfected cells; host or cells: Ba/F3 cells, retroviral pBabe-Puro vector (vector made by GeneScript from EGFR L858R)
Protocol: as §4, §2, §5

EGFR Ex19del L718V = target: T19, EGFR Ex19del L718V (Homo sapiens, UniProt P00533, DEL746-750/L718V)
T19 construct: expressed in transfected cells; host or cells: Ba/F3

EGFR Ex19del T790M = target: T20, EGFR Ex19del T790M (Homo sapiens, UniProt P00533, DEL746-750/T790M); conditions: T790M-like-3S, 72 hours
T20 construct: expressed in transfected cells; host or cells: Ba/F3

EGFR L833F = target: T21, EGFR L833F (Homo sapiens, UniProt P00533, L833F); conditions: Classical-Like, 72 hours
T21 construct: expressed in transfected cells; host or cells: Ba/F3 cells, retroviral pBabe-Puro vector
Protocol: as §4, §2, §5

EGFR E709K L858R = target: T22, EGFR E709K L858R (Homo sapiens, UniProt P00533, E709K/L858R); conditions: Classical-Like, 72 hours
T22 construct: expressed in transfected cells; host or cells: Ba/F3 cells, retroviral pBabe-Puro vector
Protocol: as §4, §2, §5

EGFR Ex19del G724S = target: T23, EGFR Ex19del G724S (Homo sapiens, UniProt P00533, DEL746-750/G724S)
T23 construct: expressed in transfected cells; host or cells: Ba/F3
Protocol: as §1, §2, §3

EGFR T725M = target: T24, EGFR T725M (Homo sapiens, UniProt P00533, T725M); conditions: Classical-Like, 72 hours
T24 construct: expressed in transfected cells; host or cells: Ba/F3 cells, retroviral pBabe-Puro vector (vector made by GeneScript from EGFR WT)
Protocol: as §4, §2, §5

EGFR D770insNPG = target: T25, EGFR D770insNPG (Homo sapiens, UniProt P00533, INS770NPG); conditions: Ex20, 72 hours
T25 construct: expressed in transfected cells; host or cells: Ba/F3 cells, retroviral pBabe-Puro vector
Protocol: as §6, §2, §7

EGFR L858R = target: T26, EGFR L858R (Homo sapiens, UniProt P00533, L858R); conditions: Classical-Like, 72 hours
T26 construct: expressed in transfected cells; host or cells: Ba/F3 cells, retroviral pBabe-Puro vector

EGFR L718Q T790M = target: T27, EGFR L718Q T790M (Homo sapiens, UniProt P00533, L718Q/T790M); conditions: T790M-like-3R, 72 hours
T27 construct: expressed in transfected cells; host or cells: Ba/F3

ratio of IC50 for cells with mutant EGFR to IC50 for cells with wildtype EGFR (Mut/WT) (EGFR S768dupSVD) | ratio of IC50 for cells with mutant EGFR to IC50 for cells with wildtype EGFR (Mut/WT) (EGFR A763insFQEA) | ratio of IC50 for cells with mutant EGFR to IC50 for cells with wildtype EGFR (Mut/WT) (EGFR L861R) | ratio of IC50 for cells with mutant EGFR to IC50 for cells with wildtype EGFR (Mut/WT) (EGFR L858R/V834L) | ratio of IC50 for cells with mutant EGFR to IC50 for cells with wildtype EGFR (Mut/WT) [1] | ratio of IC50 for cells with mutant EGFR to IC50 for cells with wildtype EGFR (Mut/WT) (EGFR L858R/T790M/L718Q) | ratio of IC50 for cells with mutant EGFR to IC50 for cells with wildtype EGFR (Mut/WT) (EGFR L858R/T790M/C797S) | ratio of IC50 for cells with mutant EGFR to IC50 for cells with wildtype EGFR (Mut/WT) (EGFR S720P) | ratio of IC50 for cells with mutant EGFR to IC50 for cells with wildtype EGFR (Mut/WT) (EGFR Ex19del T790M C797S) | ratio of IC50 for cells with mutant EGFR to IC50 for cells with wildtype EGFR (Mut/WT) (EGFR Ex19del/T790M/G724S) | ratio of IC50 for cells with mutant EGFR to IC50 for cells with wildtype EGFR (Mut/WT) (EGFR H773insNPH) | ratio of IC50 for cells with mutant EGFR to IC50 for cells with wildtype EGFR (Mut/WT) (EGFR A767insASV) | ratio of IC50 for cells with mutant EGFR to IC50 for cells with wildtype EGFR (Mut/WT) (EGFR L858R S784F) | ratio of IC50 for cells with mutant EGFR to IC50 for cells with wildtype EGFR (Mut/WT) (EGFR L833F) | ratio of IC50 for cells with mutant EGFR to IC50 for cells with wildtype EGFR (Mut/WT) (EGFR E709K L858R) | ratio of IC50 for cells with mutant EGFR to IC50 for cells with wildtype EGFR (Mut/WT) (EGFR T725M) | ratio of IC50 for cells with mutant EGFR to IC50 for cells with wildtype EGFR (Mut/WT) (EGFR D770insNPG) | ratio of IC50 for cells with mutant EGFR to IC50 for cells with wildtype EGFR (Mut/WT) (EGFR L858R) | ratio of IC50 for cells with mutant EGFR to IC50 for cells with wildtype EGFR (Mut/WT) (EGFR L718Q T790M) | Compound | further results
0.882 | 0.0379 | 0.001653 | 0.009314 | 5.465 | 45.78 | 41.69 | 0.03879 | 38.03 | 9.95 | 1.645 | 3.057 | 0.06448 | 0.1863 | 0.007985 | 0.03062 | 5.404 | 0.002159 | 4.784 | COc1cc2ncnc(Nc3ccc(F)c(Cl)c3)c2cc1NC(=O)/C=C/CN1CCCCC1 [Dacomitinib] | ratio of IC50 for cells with mutant EGFR to IC50 for cells with wildtype EGFR (Mut/WT) (EGFR Ex19del G796S; PACC, Ex19del G796S, Ba/F3, 72 hours): 0.2371; ratio of IC50 for cells with mutant EGFR to IC50 for cells with wildtype EGFR (Mut/WT) (EGFR L747S; PACC, L747S, Ba/F3, 72 hours): 0.006377; ratio of IC50 for cells with mutant EGFR to IC50 for cells with wildtype EGFR (Mut/WT) (EGFR Ex19del/C797S; PACC, Ex19del/C797S, Ba/F3, 72 hours): 0.01762; ratio of IC50 for cells with mutant EGFR to IC50 for cells with wildtype EGFR (Mut/WT) (EGFR Ex19del T854I; PACC, Ex19del T854I, Ba/F3, 72 hours): 0.4127; ratio of IC50 for cells with mutant EGFR to IC50 for cells with wildtype EGFR (Mut/WT) (EGFR R776H; PACC, R776H, Ba/F3, 72 hours): 0.001367; ratio of IC50 for cells with mutant EGFR to IC50 for cells with wildtype EGFR (Mut/WT) (EGFR Ex19del L718V; PACC, Ex19del L718V, Ba/F3, 72 hours): 0.0061; ratio of IC50 for cells with mutant EGFR to IC50 for cells with wildtype EGFR (Mut/WT) (EGFR Ex19del T790M): 4.871; ratio of IC50 for cells with mutant EGFR to IC50 for cells with wildtype EGFR (Mut/WT) (EGFR Ex19del G724S; PACC, Ex19del G724S, Ba/F3, 72 hours): 0.1707
4.027 | 0.03797 | 0.05091 | 0.003768 | 2.781 | 11.87 | 23.29 | 0.01568 | 26.17 | 0.02984 | 5.102 | 10.93 | 0.02456 | 0.08625 | 0.0006261 | 0.004466 | 4.93 | 0.03702 | 3.513 | C=CC(=O)Nc1cc(Nc2nccc(-n3cc(CN(C)C)c(-c4ccccc4)n3)n2)c(OC)cc1N1CCOCC1 [Lazertinib] | ratio of the IC50 value for cells with a PACC EGFR mutation to the IC50 value for cells with wildtype EGFR (EGFR Ex19del G796S; Ba/F3 cells, EGFR Ex19del G796S (PACC), Mut/WT): 1.423; ratio of the IC50 value for cells with a PACC EGFR mutation to the IC50 value for cells with wildtype EGFR (EGFR L747S; Ba/F3 cells, EGFR L747S (PACC), Mut/WT): 1.007; ratio of the IC50 value for cells with a PACC EGFR mutation to the IC50 value for cells with wildtype EGFR (EGFR Ex19del/C797S; Ba/F3 cells, EGFR Ex19del/C797S (PACC), Mut/WT): 11.82; ratio of the IC50 value for cells with a PACC EGFR mutation to the IC50 value for cells with wildtype EGFR (EGFR Ex19del T854I; Ba/F3 cells, EGFR Ex19del T854I (PACC), Mut/WT): 1.44; ratio of the IC50 value for cells with a PACC EGFR mutation to the IC50 value for cells with wildtype EGFR (EGFR R776H; Ba/F3 cells, EGFR R776H (PACC), Mut/WT): 0.6077; ratio of the IC50 value for cells with a PACC EGFR mutation to the IC50 value for cells with wildtype EGFR (EGFR Ex19del L718V; Ba/F3 cells, EGFR Ex19del L718V (PACC), Mut/WT): 0.04944; ratio of the IC50 value for cells with a PACC EGFR mutation to the IC50 value for cells with wildtype EGFR (EGFR Ex19del G724S; Ba/F3 cells, EGFR Ex19del G724S (PACC), Mut/WT): 1.782
